Test results as given in patent US6548715B1, “Structural analogues of vitamin D” (Laboratoire Theramex S.A., priority 1993, dated 2003).

Legend:
HL-60 cells = experiment: HL-60 cell differentiation (NBT reduction); format: cell-based; conditions: % of the activity of 1α,25-(OH)2D3 at 50% of its activity (B50); human leukemia cells
Method: (§1) HL-60 cells were seeded at 1.2×10^5 cells/ml and 1α,25-(OH)2D3 or its anologs were added in ethanol (final concentration <0.2%) in RPMI 1640 medium supplemented with 10% heat-inactivated fetal calf serum (FCS) for 4 d at 37° C. Cells were then assayed for maturation by NBT reduction assay as described (22) using a hemacytometer, or for proliferation by cell counting and [^3H] thymidine incorporation. MG 63 cells, seeded at 5×10^3 cells/ml in 96 well flat bottomed culture plates (Falcon, Becton Dickinson, N.J.) in a volume of 0.2 ml of DMEM and 2% FCS, were incubated with 1α,25-(OH)2D3 or its analogues for 72 h. Osteocalcin was then measured in the culture medium using a homologous human osteocalcin RIA (39). Breast carcinoma cells (MCF-7 or GR) were grown in DMEM/nut.mix F-12 (HAM) medium supplemented with 10% FCS. Cells (5000/Well) were incubated during 24 h in 96 well tissue culture plates (Falcon 3072) followed by a 72 h incubation with/without 1α,25-(OH)2D3 or analogues. The cells were then incubated with [^3H]thymidine (1 μCi/well) for 4 h and harvested thereafter in NaOH (0.1 M) and the radioactivity counted. The protein content of the cells was measured by the Pierce BCA protein assay (Rockford, Ill.).

[1] = tested on: spontaneously diabetic NOD mice; experiment: Prevention of autoimmune disease recurrence after syngeneic islet transplantation in diabetic NOD mice; format: in vivo; conditions: Nr 46 10 μg/kg/2d
Excerpt: To evaluate the immune potential of the analogues the well known model of prevention of autoimmune disease recurrence in the spontaneously diabetic NOD mice was used. When syngeneic NOD islets are transplanted under the kidney capsule of spontaneously diabetic NOD mice, diabetes is only cured for some days, since in the absence of immunomodulatory treatment, the newly transplanted islets are destroyed within 14 days.

[2] = tested on: human normal keratinocytes; experiment: Human keratinocyte proliferation ([3H]thymidine incorporation); format: cell-based; conditions: % of the activity of 1α,25-(OH)2D3 at 50% of its activity (B50)
Method: to evaluate the effects on cell proliferation of non-malignant cells and especially to evaluate their potential for use for dermatological disorders, the new compounds were tested in cultures of human normal keratinocytes.
Human skin keratinocytes were isolated and cultured using a modification of the method of Kitano and Okada (38).
Briefly, the skin from biopsies of patients with breast tumors, was cutted into pieces measuring 3-5 mm and soaked overnight at 4° C. in a solution of dispase (20 Boehringer units/ml). The epidermis was peeled from the dermis, washed with calcium- and magnesium-free phosphate buffered saline and incubated and shaked in a 0.25% trypsin solution for 10 min at room temperature. The reaction was then stopped by addition of PBS containing 10% FCS. The cells were collected after centrifugation at 4° C. for 10 min at 800 rpm. After an additional washing with PBS, the pellet was suspended in culture medium into 25 cm^2 primaria flasks from Becton Dickinson. The keratinocytes were cultivated at 37° C. in an atmosphere of 5% CO2 in air. A few hours later, the medium was replaced by new one. The medium [Keratinocyte Medium from Gibco containing Epidermal Growth Factor (5 ng/ml), Bovine Pituitary Extract (35-50 μg/ml) and antibiotics] was renewed every other day until confluency.
Keratinocytes were cultured in 96-well plate and, after 24 hours, were treated with various concentrations of vitamin D analogues, followed by pulse labelling with 1 μCi of [^3H]thymidine for 3 hours. Cultures were washed 3 times with PBS and twice with 10% (v/v) ice cold trichloroacetic acid. Cells were solubilized with 1 M NaOH and radioactivity was counted in a scintillation counter.

MG-63 cells = experiment: MG-63 osteosarcoma cells, osteocalcin secretion; format: cell-based; conditions: % of the activity of 1α,25-(OH)2D3 at 50% of its activity (B50); human osteosarcoma cells
Method: as §1

MCF-7 cells = experiment: MCF-7 breast cancer cell proliferation ([3H]thymidine incorporation); format: cell-based; conditions: % of the activity of 1α,25-(OH)2D3 at 50% of its activity (B50); human breast cancer cells
Method: as §1

[3] = tested on: vitamin D-deficient chicks; experiment: Calcemic effect in vitamin D-deficient chicks (serum calcium); format: in vivo, chick; conditions: % of the activity of 1α,25-(OH)2D3 at 50% of its activity (B50); vitamin D-deficient chicks injected 10 consecutive days
Method: The antirachitic activity of the analogues was tested in 3 weeks old vitamin D-deficient chicks injected for 10 consecutive days with 1α,25-(OH)2D3 or its analogues (22,23). Serum calcium (by atomic absorptiometry) and osteocalcin (by specific RIA), duodenal calbindin D-28K (by RIA) and bone calcium content were measured. The hypercalcemic effect of the most interesting anologues was also tested in vitamin D-replete normal NMRI mice by daily sc injection of 1α,25-(OH)2D3, its analogues or the solvent for 7 consecutive days, using serum, bone and urinary calcium excretion and serum osteocalcin (by specific mouse RIA) as parameters (40).

vitamin D receptor = molecular target: T1, vitamin D receptor (Sus scrofa, UniProt A3RGC1); conditions: % of the activity of 1α,25-(OH)2D3 at 50% of its activity (B50); 1α,25-(OH)2D3 assigned 100%
T1 sequence (A3RGC1 1-427): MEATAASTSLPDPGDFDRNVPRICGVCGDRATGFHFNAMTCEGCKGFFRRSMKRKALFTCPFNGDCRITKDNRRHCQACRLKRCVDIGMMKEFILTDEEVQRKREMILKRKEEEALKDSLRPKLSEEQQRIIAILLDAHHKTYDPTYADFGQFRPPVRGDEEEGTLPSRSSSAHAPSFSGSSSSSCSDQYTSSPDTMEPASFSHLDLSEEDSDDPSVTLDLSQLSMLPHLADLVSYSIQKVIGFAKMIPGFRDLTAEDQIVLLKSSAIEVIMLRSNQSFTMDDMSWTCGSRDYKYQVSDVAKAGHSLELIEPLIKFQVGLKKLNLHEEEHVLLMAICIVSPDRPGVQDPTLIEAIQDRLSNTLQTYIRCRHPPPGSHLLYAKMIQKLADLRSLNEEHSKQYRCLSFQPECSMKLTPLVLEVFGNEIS

[4] = molecular target: T2, human DBP (vitamin D binding protein) (Homo sapiens, UniProt P02774); experiment: Relative affinity for purified human vitamin D-binding protein (hDBP); conditions: % of the activity of 1α,25-(OH)2D3 at 50% of its activity (B50)
T2 sequence (P02774 17-474): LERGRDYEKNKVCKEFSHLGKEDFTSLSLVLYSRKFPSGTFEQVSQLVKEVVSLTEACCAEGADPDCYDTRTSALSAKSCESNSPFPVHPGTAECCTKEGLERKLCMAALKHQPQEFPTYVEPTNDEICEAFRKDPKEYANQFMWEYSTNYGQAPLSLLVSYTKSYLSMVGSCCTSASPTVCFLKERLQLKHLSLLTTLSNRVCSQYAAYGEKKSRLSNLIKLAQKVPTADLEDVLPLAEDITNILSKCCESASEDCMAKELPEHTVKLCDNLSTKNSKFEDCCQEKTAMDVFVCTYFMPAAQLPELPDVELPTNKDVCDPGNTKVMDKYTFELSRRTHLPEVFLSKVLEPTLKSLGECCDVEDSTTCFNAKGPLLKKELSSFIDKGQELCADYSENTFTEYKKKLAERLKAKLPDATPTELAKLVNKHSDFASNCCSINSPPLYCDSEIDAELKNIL

Row | Structure (SMILES) | Ca serum chick [3] [%] | Affinity for pig receptor (vitamin D receptor) [%] | Affinity for human DBP [4] [%] | Cell differentation/cell proliferation HL-60 (HL-60 cells) [%] | Mean survival of islets and range [1] | Cell differentation/cell proliferation keratinocytes [2] [%] | Cell differentation/cell proliferation MG-63 (MG-63 cells) [%] | Cell differentation/cell proliferation MCF-7 (MCF-7 cells) [%]
1 | CC(CC#CC(C)(C)O)C1CCC2C(=CC=C3CC(O)CC(O)C3)CCCC21C (stereo not drawn) [Compound 46] | 2 | 30 | <0.5 | 1650 | 19 (6-51) d | 1000 | 500 | 1950
2 | CC(CC#CC(C)(C)O)C1CCC2C(=CC=C3CC(O)CC(O)C3)CCCC21C (stereo not drawn) [Compound 44] | 0.1 | 26 | 2 | 320 | – | 700 | 150 | 1000

The next lines start with results.

Row | Ca serum chick [3] [%] | Affinity for pig receptor (vitamin D receptor) [%] | Affinity for human DBP [4] [%] | Structure (SMILES) | Cell differentation/cell proliferation HL-60 (HL-60 cells) [%] | Mean survival of islets and range [1] | Cell differentation/cell proliferation keratinocytes [2] [%] | Cell differentation/cell proliferation MG-63 (MG-63 cells) [%] | Cell differentation/cell proliferation MCF-7 (MCF-7 cells) [%]
3 | <1 | 3 | 1 | CC1=C(/C=C\C2=CCC[C@](C)([C@H](C)[C@H](C)CC[C@@H](O)C(C)C)C2)C[C@@H](O)C[C@@H]1O [Compound 58] | 650 | – | 1000 | 115 | 700
4 | 0.1 | 25 | 7 | CC(CCCC(C)(C)O)C1CCC2C(=CC=C3CC(O)CC(O)C3)CCCC21C (stereo not drawn) [Compound 43] | 40 | – | 100 | 100 | 20
5 | <0.1 | 8 | 19 | C=C1C(=CC=CCC2(C)CCC(CCCC(C)(C)O)C2(C)C)CC(O)CC1O (stereo not drawn) [Compound 11] | 30 | – | 10 | 35 | 30
